# What was measured:
# [1] = tested on: teeth and alveolar bone of an adult patient; test: Example 3: orthodontic treatment with daily light and oral vitamin D3 supplementation; type: in vivo; conditions: passive (retention) phase, 2000 IU to 12,000 IU per day oral vitamin D3, light once per week at about 625 nm
# Method: An adult patient is tested for Vitamin D3 blood serum levels at the same time as their routine orthodontic examination and records appointment. The patient's diagnosis is Class I mild crowding with 4 mm of crowding on the upper arch and 4 mm on the lower arch. An orthodontic treatment plan is formulated to include the installation of a fixed orthodontic appliance with some mild expansion of the upper and lower arches.
# The patient self-administers oral oil-based vitamin D3 capsules of 6000 IU per day for 3 months to increase their vitamin D3 serum levels. Laboratory serum testing is optionally performed again after 3 months of vitamin D3 supplementation. The patient maintains or adjusts their oral dose of vitamin D3 based on their subsequent lab results.
# Orthodontic treatment is started either after the 3 month period or anytime prior. The patient has conventional fixed orthodontic brackets, and bands placed on their teeth with an initial 0.016 inch NiTi wire tied in place with silcone ligatures. […]
# At a passive state of orthodontic treatment, i.e., retention phase, a fixed retention orthodontic appliance is installed on the patient's teeth. […] The dosage can be determined based on vitamin D blood serum levels which can be measured periodically to determine dosing. […]
# [2] = daily oral supplement of 2,000 IU to 6,000 IU in adults, within 3 months; cited from earlier work
Compound,alveolar bone density around the teeth [1],blood levels of vitamin D [2] [ng/mL]
C=C1CC[C@H](O)C/C1=C/C=C1\CCC[C@]2(C)[C@@H]([C@H](C)CCCC(C)C)CC[C@@H]12 [vitamin D3],increased,
vitamin D,,40

# — patent publication US20190117994A1, “METHODS USEFUL FOR REMODELING MAXILLOFACIAL BONE USING LIGHT THERAPY AND A FUNCTIONAL APPLIANCE” (Biolux Research Ltd., priority 2010, published 2019)
